System: Du145 human prostate cancer cells
Test: Long-term growth curve with repeated electroporation, Du145
Format: cell-based
Details: 1.6 μM miRNA electroporated, repeated on days 7 and 14, day 20
Procedure: The inventors assessed the therapeutic effect of hsa-miR-15a for prostate cancer by using the Du145 human prostate cancer cell line, derived from a brain metastasis (Stone et al., 1978). The inventors conducted growth curve experiments in the presence of miRNA for up to 20 days. Since in vitro transfections of naked interfering RNAs, such as synthetic miRNA, are transient by nature and compromised by the dilution of the miRNA during ongoing cell divisions, miRNA was administered at multiple time points (Bartlett et al., 2006; Bartlett et al., 2007). To accommodate miRNA delivery into a large quantity of cells, the inventors employed the electroporation method for delivery of hsa-miR-15a or negative control miRNA into Du145 human prostate cancer cells. Briefly, 0.5×10^6 Du145 cells were electroporated with 1.6 μM hsa-miR-15a or negative control using the BioRad Gene Pulser Xcell™ instrument (BioRad Laboratories Inc., Hercules, Calif., USA), seeded and propagated in regular growth medium. Experiments were carried out in triplicates. When the control cells reached confluence (days 7 and 14), cells were harvested, counted and electroporated again with the respective miRNAs. To ensure similar treatment of both conditions as well as to accommodate exponential growth, the cell numbers used for the second and third electroporation were titrated down to the lowest count. The population doubling was calculated from these electroporation events using the formula PD=ln(Nf/N0)/ln2 and adjusting for the fact that approximately 72% of newly seeded cells adhere to the plate. Cell counts were extrapolated and plotted on a linear scale (FIG. 10). Arrows represent electroporation days. Standard deviations are included in the graphs.
To evaluate the therapeutic activity of hsa-miR-147 over an extended period of time, the inventors conducted growth curve experiments in the presence of miRNA for up to 21 days. Since in vitro transfections of naked interfering RNAs, such as synthetic miRNA, are transient by nature and compromised by the dilution of the oligo during ongoing cell divisions, miRNA was administered at multiple time points (Bartlett et al., 2006; Bartlett et al., 2007). To accommodate miRNA delivery into a large quantity of cells, the inventors employed the electroporation method to delivery hsa-miR-147 or negative control miRNA into PC3 and Du145 human prostate cancer cells. […] When the control cells reached confluence (days 7 and 14), cells were harvested, counted and electroporated again with the respective miRNAs. […] The population doubling was calculated from these electroporation events using the formula PD=ln(Nf/N0)/ln2 and adjusting for the fact that approximately 72% of newly seeded cells adhere to the plate. […]

With “hsa-miR-15a: Synthetic pre-miR-15a (Ambion); mature sequence UAGCAGCACAUAAUGGUUUGUG, MIMAT0000068, SEQ ID NO:1 (synthetic pre-miR (Ambion), chemistry not given here; listed as Homo sapiens)” the “cells relative to cells electroporated with negative control miRNA” value was 11.8% and the “inhibition of Du145 cell growth” value (relative to proliferation of control cells (100%)) was 88.2%.
